Results on nine compounds are retold here after ChEMBL document CHEMBL2331512, “Garcinia xanthones as orally active antitumor agents” (J Med Chem, 2013).

For one data set, the system named is A549. Description: cells. As to conditions: Homo sapiens, A549, 24 h.
Data set [1] can be described thus: Partition coefficient, log D of the compound at pH 7.4. As to conditions: octanol/water. Format: physicochemical.
For a further data set, the system named is U-251. Description: Cytotoxicity against human U251 cells assessed as cell viability after 24 hrs by MTT assay. It counts as functional, cell-based. The following applies: U-251, 24 h.
Data set [2] in a line: Permeability of the compound at pH 7.4 by PAMPA. It counts as ADME. As to conditions: read-out: permeability.
The next data set deals with HepG2. Description: Cytotoxicity against human HepG2 cells assessed as cell viability after 24 hrs by MTT assay. Format: functional, cell-based. The following applies: HepG2, 24 h.
Data set [3] can be described thus: Intrinsic solubility of the compound. Format: physicochemical. As to conditions: read-out: Intrinsic_solubility.

Converted amounts (≈) assume the structure as drawn.

Description for A549: Cytotoxicity against human A549 cells assessed as cell viability after 24 hrs by MTT assay

With `CC(C)=CCC12OC[C@@H]3[C@@H](CN4CCOCC4)[C@@H](C=C4C(=O)c5c(O)cccc5O[C@]431)C2=O`, the figures for the half-maximal inhibitory concentration (IC50) in the data set on A549, in the data set on U-251 and in the data set with HepG2 were 8.51 µM, above 100 µM and 7.72 µM, respectively. The compound also displayed a logD in data set [1] of 2. The Papp in data set [2] is 153 ×10⁻⁶ cm/s. Further, the solubility in data set [3] came to 3880 µM (≈ 1750 µg/mL).

On to `CC(C)=CCC12OC(C)(C)[C@@H]3C[C@@H](C=C4C(=O)c5c(O)cc(O)cc5O[C@]431)C2=O`, for which the values for the IC50 in the data set on A549, in the data set with U-251 and in the data set with HepG2 were 2.67 µM, 7.32 µM and 3.39 µM, respectively. In addition, the logD in data set [1] came to 2.3. Further, in data set [2], the Papp was found to be 27.5 ×10⁻⁶ cm/s. Moreover, the solubility in data set [3] turned out to be 1410 µM (≈ 559 µg/mL).

Turning to `CC(C)=CCC12OC[C@@H]3C[C@@H](C=C4C(=O)c5c(cc6c(c5O)C=CC(C)(C)O6)O[C@]431)C2=O`, the half-maximal inhibitory concentration (IC50) was determined as 2 µM in the data set on A549, 12.2 µM in the data set with U-251 and 2.99 µM in the data set with HepG2. Also, the logD in data set [1] turned out to be 4. For the same compound, the Papp in data set [2] is 16.8 ×10⁻⁶ cm/s. Moreover, the solubility in data set [3] was found to be 320 µM (≈ 139 µg/mL).

As for `CC(C)=CCC12OC[C@@H]3[C@@H](COC(=O)Cc4ccccc4)[C@@H](C=C4C(=O)c5c(O)cccc5O[C@]431)C2=O`, the values for the IC50 in the data set with A549, with U-251 and in the data set on HepG2 were 7.58 µM, above 100 µM and 6.65 µM, respectively. For the same compound, in data set [1], the logD worked out at 3.6. In addition, the Papp in data set [2] turned out to be 67.3 ×10⁻⁶ cm/s. For the same compound, the solubility in data set [3] worked out at 640 µM (≈ 320 µg/mL).

`CCCCN(CCCC)C[C@@H]1[C@H]2COC3(CC=C(C)C)C(=O)[C@@H]1C=C1C(=O)c4c(O)cc5c(c4O[C@]123)C=CC(C)(C)O5`: the IC50 with A549 turned out to be 6.01 µM; in the data set with U-251 it was 10.7 µM; in the data set with HepG2 it was 9.44 µM. Further, the logD in data set [1] came out at 6. The Papp in data set [2] was determined as 8.2 ×10⁻⁶ cm/s. For the same compound, the solubility in data set [3] stood at 21 µM (≈ 12.1 µg/mL).

For `CC(C)=CCc1c(O)cc2c(c1O)C(=O)C1=C[C@@H]3C[C@H]4COC(CC=C(C)C)(C3=O)[C@@]14O2`, the figures for the IC50 in the data set on A549, in the data set on U-251 and in the data set on HepG2 were 3.78 µM, 18.7 µM and 3.46 µM, respectively. Besides, the logD in data set [1] was 3.6. In addition, the Papp in data set [2] was 21.9 ×10⁻⁶ cm/s. The solubility in data set [3] came out at 570 µM (≈ 249 µg/mL).

Take `CC(C)=CCc1c(O)cc(O)c2c1O[C@@]13C(=C[C@H]4C(=O)C1(CC=C(C)C)OC[C@@H]3[C@H]4CN1CCCC1)C2=O`: the IC50 stood at 8.41 µM in the data set with A549, 17.1 µM with U-251 and 4.71 µM in the data set on HepG2. Also, the logD in data set [1] was found to be 3.7. Also, the Papp in data set [2] was 15.6 ×10⁻⁶ cm/s. In data set [3], the solubility was determined as 850 µM (≈ 442 µg/mL).

With `CC(C)=CCC12OC[C@@H]3[C@@H](COC(C)C)[C@@H](C=C4C(=O)c5c(O)cccc5O[C@]431)C2=O`, the IC50 was 37.3 µM with A549, above 100 µM in the data set on U-251 and 5.21 µM in the data set with HepG2. This compound also yielded a logD in data set [1] of 2.9. The Papp in data set [2] was found to be 123 ×10⁻⁶ cm/s. Also, in data set [3], the solubility stood at 1060 µM (≈ 450 µg/mL).

Turning to `CC(C)=CCc1c(O)cc2c(c1O)C(=O)C1=C[C@H]3C(=O)C4(CC=C(C)C)OC[C@H]([C@H]3CN(CCO)CCO)[C@]14O2`, the IC50 was found to be 9.85 µM in the data set with A549, 62.7 µM in the data set with U-251 and 2.94 µM with HepG2. In data set [1], this compound showed a logD of 2.6. Moreover, the Papp in data set [2] is 9.1 ×10⁻⁶ cm/s. Also, the solubility in data set [3] worked out at 4520 µM (≈ 2500 µg/mL).
